This note sets out measurements from patent US20150276740A1, “METHOD FOR D[…] ACTIVITY” (SYSMEX CORPORATION, priority 2014, published 2015).

The target in one data set is T1, CDK1 (Homo sapiens, UniProt P06493).
T1 construct: a reaction was caused to occur between CDK1 and the anti-CDK1 antibody; endogenous in cells; host or cells: K562 cells (lysate, immunoprecipitated with anti-CDK1 antibody from Operon on protein A Sepharose beads)
Briefly: Determination of CDK1 kinase activity using chemical luminescence with the ATP derivative as phosphate-group donor (S/N evaluation). Type of data set: biochemical. The conditions noted are these: CDK1 immunoprecipitated from K562 solubilized sample; biotinylated CDK2 substrate peptide; anti-DNP antibody detection; compared to the S/N ratio of Comparative Example 1 (ATPγS as phosphate-group donor). On the procedure: In a well of a 96-well filter plate (hydrophilic PVDF membrane manufactured by Millipore Corp.), 70 μL of an immunoprecipitation buffer (a buffer containing 0.1 mass % Nonidet NP-40 and 50 mM tris hydrochloride (pH7.4)) was added. Then, with respect to the immunoprecipitation buffer in the well, 20 μL of an antibody solution containing 16 μg of an anti-CDK1 antibody (manufactured by Operon Co., ltd.), and 30 μL of 20 v/v % Sepharose beads (manufactured by GE Healthcare) coated with protein A were added. […]
Next, with respect to the beads that had been cleaned, 50 μL of the CDK substrate solution (composition: 100 ng/μL biotinylated CDK2 substrate peptide (manufactured by Enzo Inc.), the compound 2 represented by formula (x2), 54 mM tris hydrochloride (pH7.4), and 20 mM magnesium chloride) was added to obtain a mixture. The concentration of the compound 2 was a concentration that provided an absorbance of 2 at 362 nm. This absorbance was measured in a manner similar to that in Example 1 (2). […]

Data set [1] has as its system biotinylated CDK2 substrate peptide (Biotin-Ahx-His-His-Ala-Ser-Pro-Arg-Lys).

T1 sequence (P06493 whole entry): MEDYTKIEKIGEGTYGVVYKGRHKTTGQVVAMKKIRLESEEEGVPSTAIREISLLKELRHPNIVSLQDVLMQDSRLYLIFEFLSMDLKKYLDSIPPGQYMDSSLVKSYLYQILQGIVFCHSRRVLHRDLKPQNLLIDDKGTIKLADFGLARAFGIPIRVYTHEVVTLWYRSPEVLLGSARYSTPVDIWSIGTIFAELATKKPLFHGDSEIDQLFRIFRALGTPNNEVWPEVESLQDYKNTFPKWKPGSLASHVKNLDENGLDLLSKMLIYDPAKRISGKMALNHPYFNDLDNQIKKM
T1 sequence (P14635 whole entry partner): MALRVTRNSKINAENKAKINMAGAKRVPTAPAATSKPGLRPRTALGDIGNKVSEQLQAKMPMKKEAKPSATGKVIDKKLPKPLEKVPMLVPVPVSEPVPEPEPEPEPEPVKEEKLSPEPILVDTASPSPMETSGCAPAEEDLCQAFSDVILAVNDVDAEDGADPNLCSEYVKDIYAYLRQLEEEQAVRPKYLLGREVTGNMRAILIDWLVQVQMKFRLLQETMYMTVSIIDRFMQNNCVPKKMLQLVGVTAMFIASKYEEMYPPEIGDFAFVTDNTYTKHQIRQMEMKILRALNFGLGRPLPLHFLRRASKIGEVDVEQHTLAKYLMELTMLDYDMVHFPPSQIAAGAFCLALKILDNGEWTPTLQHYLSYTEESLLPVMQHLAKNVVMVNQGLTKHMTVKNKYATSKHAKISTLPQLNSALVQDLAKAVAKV

Regarding `Nc1ncnc2c1ncn2C1OC(COP(=O)(O)OP(=O)(O)OP(=O)(O)SC2CC(=O)N(CCC(=O)NCCOCCOCCCNC(CCCCNc3ccc([N+](=O)[O-])cc3[N+](=O)[O-])C(=O)O)C2=O)C(O)C1O` (centres unmarked) [compound 4], at CDK1, the “S/N ratio (luminescence intensity A1/luminescence intensity B)” value was “tended to be high”.

Turning to cyclin-dependent kinase (CDK) 2, the “specific luminescence intensity based on CDK2 activity (ATPγDNP transphosphorylation, ALP labeled anti-DNP antibody, chemiluminescence)” value in data set [1] is “the specific luminescence intensity based on CDK2 activity increases in association with an increase in the CDK2 concentration (increase in the solubilized sample concentration)”.
